Reference: US20200016159A1, “N3-CYCLICALLY SUBSTITUTED THIENOURACILS AND USE THEREOF” (Bayer Aktiengesellschaft, priority 2016, published 2020)

biological target: T1, human adenosine A2b receptor (Homo sapiens, UniProt P29275); experiment: Cellular in vitro reporter gene test for A2b receptor activity (antagonism of NECA); type: cell-based; set-up: expressed in transfected cells; host or cells: CHO-K1 (Chinese hamster ovary) with CRE-luciferase reporter; settings: recombinant CHO-K1 cells, CRE-luciferase reporter, co-incubation with EC50 concentration of NECA, 3 hours
T1 sequence (P29275 1-332): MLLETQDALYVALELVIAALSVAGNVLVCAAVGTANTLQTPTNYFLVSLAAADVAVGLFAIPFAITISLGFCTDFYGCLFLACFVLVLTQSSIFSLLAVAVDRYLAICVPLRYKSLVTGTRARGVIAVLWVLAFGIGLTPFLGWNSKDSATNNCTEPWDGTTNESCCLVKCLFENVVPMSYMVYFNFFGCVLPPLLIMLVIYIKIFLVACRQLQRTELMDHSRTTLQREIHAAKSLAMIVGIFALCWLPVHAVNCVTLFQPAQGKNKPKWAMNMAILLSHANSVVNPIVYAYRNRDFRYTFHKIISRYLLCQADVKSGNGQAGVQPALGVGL
In short: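 Antagonism measured as block of NECA-induced, cAMP/CRE-dependent luciferase expression in recombinant A2b CHO-K1 cells. NECA used at the EC50 set in a pre-experiment on each test day; luminescence detected after 3 h. Reported as IC50, partly averaged and rounded to two significant figures.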

Going from `Cc1c(Cn2cc[nH]c2=O)sc2c1c(=O)n(C1CC1)c(=O)n2CC1CCCO1` (single isomer, unassigned) [Example 47, 3-Cyclopropyl-5-methyl-6-[(2-oxo-2,3-dihydro-H-imidazol-1-yl)methyl]-1-(tetrahydrofuran-2-ylmethyl)thieno[2,3-d]pyrimidine-2,4(1H,3H)-dione] to `COC(=O)N=C1NCCN1Cc1sc2c(c1C)c(=O)n(C1CC1)c(=O)n2CC1CCCO1` (single isomer, unassigned) [Example 44, Methyl [1-{[3-cyclopropyl-5-methyl-2,4-dioxo-1-(tetrahydrofuran-2-ylmethyl)-1,2,3,4-tetrahydrothieno[2,3-d]pyrimidin-6-yl]methyl}imidazolidin-2-ylidene]carbamate], the IC50 falls from 140 nM to 16 nM (8.8-fold).

`Cc1c(CN2CCNC2=O)sc2c1c(=O)n(C1CC1C)c(=O)n2CCC(F)(F)C(F)F` (racemic) [Example 245, 5-Methyl-3-(2-methylcyclopropyl)-6-[(2-oxoimidazolidin-1-yl)methyl]-1-(3,3,4,4-tetrafluorobutyl)thieno[2,3-d]pyrimidine-2,4(1H,3H)-dione] and `Cc1c(CN2CCNC2=O)sc2c1c(=O)n(C1CC1C)c(=O)n2CC(F)(F)F` (single isomer, unassigned) [Example 239, 5-Methyl-3-(2-methylcyclopropyl)-6-[(2-oxoimidazolidin-1-yl)methyl]-1-(2,2,2-trifluoroethyl)thieno[2,3-d]pyrimidine-2,4(1H,3H)-dione] are within 1.5-fold of each other in IC50: 6.7 nM for the first, 4.7 nM for the second.

Compared with `CCC1CC1n1c(=O)c2c(C)c(CN3CCNC3=O)sc2n(CCOC)c1=O` (single isomer, unassigned) [Example 302, 3-(2-Ethylcyclopropyl)-1-(2-methoxyethyl)-5-methyl-6-[(2-oxoimidazolidin-1-yl)methyl]thieno[2,3-d]pyrimidine-2,4(1H,3H)-dione], `Cc1c(CN2CCNC2=O)sc2c1c(=O)n(C1CC1C)c(=O)n2C` (single isomer, unassigned) [Example 223, 1,5-Dimethyl-3-(2-methylcyclopropyl)-6-[(2-oxoimidazolidin-1-yl)methyl]thieno[2,3-d]pyrimidine-2,4(1H,3H)-dione] is 1.9-fold higher in IC50: 10 nM for the first, 19 nM for the second. The first is the more potent here.

Compared with `CO[C@H]1C[C@H](n2c(=O)c3c(C)c(Cn4nc[nH]c4=O)sc3n(CCC(F)(F)F)c2=O)C1` [Example 148, 3-(trans-3-Methoxycyclobutyl)-5-methyl-6-[(5-oxo-4,5-dihydro-1H-1,2,4-triazol-1-yl)methyl]-1-(3,3,3-trifluoropropyl)thieno[2,3-d]pyrimidine-2,4(1H,3H)-dione], `COCCn1c(=O)n([C@H]2C[C@@H]2C)c(=O)c2c(C)c(Cn3nc[nH]c3=O)sc21` [Example 325, 1-(2-Methoxyethyl)-5-methyl-3-[(1S,2S)-2-methylcyclopropyl]-6-[(5-oxo-4,5-dihydro-1H-1,2,4-triazol-1-yl)methyl]thieno[2,3-d]pyrimidine-2,4(1H,3H)-dione] is 1.5-fold lower in IC50: 66 nM for the first, 43 nM for the second. The second is the more potent here.

Going from `Cc1c(CN2CCNC2=S)sc2c1c(=O)n(C1CC1)c(=O)n2CCC(F)(F)F` [Example 10, 3-Cyclopropyl-5-methyl-6-[(2-thioxoimidazolidin-1-yl)methyl]-1-(3,3,3-trifluoropropyl)thieno[2,3-d]pyrimidine-2,4(1H,3H)-dione] to `[2H]C([2H])(c1sc2c(c1C)c(=O)n(C1CC1)c(=O)n2CCC(F)(F)F)N1CCNC1=O` [Example 16, 3-Cyclopropyl-5-methyl-6-[(2-oxoimidazolidin-1-yl)dideuteromethyl]-1-(3,3,3-trifluoropropyl)thieno[2,3-d]pyrimidine-2,4(1H,3H)-dione], the IC50 rises from 1.5 nM to 3 nM (2-fold).

`Cc1c(CN2CCNC(=O)C2=O)sc2c1c(=O)n(C1CC(C)(C)C1)c(=O)n2CCC(F)(F)F` [Example 167, 3-(3,3-Dimethylcyclobutyl)-6-[(2,3-dioxopiperazin-1-yl)methyl]-5-methyl-1-(3,3,3-trifluoropropyl)thieno[2,3-d]pyrimidine-2,4(1H,3H)-dione] and `COC(=O)N=C1NCCN1Cc1sc2c(c1C)c(=O)n(C1CC(F)(F)C1)c(=O)n2CCC(F)(F)F` [Example 122, Methyl [1-{[3-(3,3-difluorocyclobutyl)-5-methyl-2,4-dioxo-1-(3,3,3-trifluoropropyl)-1,2,3,4-tetrahydrothieno[2,3-d]pyrimidin-6-yl]methyl}imidazolidin-2-ylidene]carbamate] are within 1.5-fold of each other in IC50: 5.3 nM for the first, 4.2 nM for the second.

Going from `Cc1c(Cn2[nH]ccc2=O)sc2c1c(=O)n(C1(C)CC1)c(=O)n2CCC(F)(F)F` [Example 215, 5-Methyl-3-(1-methylcyclopropyl)-6-[(5-oxo-2,5-dihydro-1H-pyrazol-1-yl)methyl]-1-(3,3,3-trifluoropropyl)thieno[2,3-d]pyrimidine-2,4(1H,3H)-dione] to `Cc1c(Cn2cc[nH]c2=O)sc2c1c(=O)n(C1(C)CC1)c(=O)n2CCC(F)(F)F` [Example 214, 5-Methyl-3-(1-methylcyclopropyl)-6-[(2-oxo-2,3-dihydro-1H-imidazol-1-yl)methyl]-1-(3,3,3-trifluoropropyl)thieno[2,3-d]pyrimidine-2,4(1H,3H)-dione], the IC50 falls from 73 nM to 10 nM (7.3-fold). The second is the more potent here.

Going from `CCCCn1c(=O)n(C2CC2)c(=O)c2c(C)c(Cn3nc[nH]c3=O)sc21` [Example 4, 1-Butyl-3-cyclopropyl-5-methyl-6-[(5-oxo-4,5-dihydro-H-1,2,4-triazol-1-yl)methyl]thieno[2,3-d]pyrimidine-2,4(1H,3H)-dione] to `CCn1c(=O)n(C2CC2)c(=O)c2c(C)c(Cn3nc[nH]c3=O)sc21` [Example 194, 3-Cyclopropyl-1-ethyl-5-methyl-6-[(5-oxo-4,5-dihydro-1H-1,2,4-triazol-1-yl)methyl]thieno[2,3-d]pyrimidine-2,4(1H,3H)-dione], the IC50 rises from 34 nM to 180 nM (5.3-fold). The first is the more potent here.

Compared with `COCCn1c(=O)n(C2CC(F)(F)C2)c(=O)c2c(C)c(CN3CCNC3=NC(=O)OC)sc21` [Example 127, Methyl [1-{[3-(3,3-difluorocyclobuty)-1-(2-methoxyethyl)-5-methyl-2,4-dioxo-1,2,3,4-tetrahydrothieno[2,3-d]pyrimidin-6-yl]methyl}imidazolidin-2-ylidene]carbamate], `COCCn1c(=O)n(C2CCC2)c(=O)c2c(C)c(CN3CCNC3=NC(=O)OC)sc21` [Example 117, Methyl [1-{[3-cyclobutyl-1-(2-methoxyethyl)-5-methyl-2,4-dioxo-1,2,3,4-tetrahydrothieno[2,3-d]pyrimidin-6-yl]methyl}imidazolidin-2-ylidene]carbamate] is 7.7-fold lower in IC50: 10 nM for the first, 1.3 nM for the second. The second is the more potent here.

Compared with `Cc1c(CN2CCNC2=O)sc2c1c(=O)n(C1CC1C)c(=O)n2C[C@H]1CCCO1` (single isomer, unassigned) [Example 288], `Cc1c(CN2CCNC2=O)sc2c1c(=O)n([C@H]1C[C@@H]1C)c(=O)n2CC1CCC(F)(F)C1` (single isomer, unassigned) [Example 257] is 6.9-fold lower in IC50: 47 nM for the first, 6.8 nM for the second. The second is the more potent here.

Compared with `Cc1c(CN2CCNC2=O)sc2c1c(=O)n(C1CC1C)c(=O)n2C` (racemic) [Example 221, 1,5-Dimethyl-3-(2-methylcyclopropyl)-6-[(2-oxoimidazolidin-1-yl)methyl]thieno[2,3-d]pyrimidine-2,4(1H,3H)-dione], `CCC1CC1n1c(=O)c2c(C)c(CN3CCNC3=O)sc2n(CCOC)c1=O` (single isomer, unassigned) [Example 301, 3-(2-Ethylcyclopropyl)-1-(2-methoxyethyl)-5-methyl-6-[(2-oxoimidazolidin-1-yl)methyl]thieno[2,3-d]pyrimidine-2,4(1H,3H)-dione] is 19-fold higher in IC50: 3.3 nM for the first, 64 nM for the second.

First: COCCn1c(=O)n(C2(C)CC2)c(=O)c2c(C)c(Cn3nc[nH]c3=O)sc21 [Example 74, 1-(2-Methoxyethyl)-5-methyl-3-(1-methylcyclopropyl)-6-[(5-oxo-4,5-dihydro-1H-1,2,4-triazol-1-yl)methyl]thieno[2,3-d]pyrimidine-2,4(1H,3H)-dione]
Second: Cc1c(Cn2nc[nH]c2=O)sc2c1c(=O)n(C1(C)CC1)c(=O)n2CC1CC1(F)F (single isomer, unassigned) [Example 68, 1-[(2,2-Difluorocyclopropyl)methyl]-5-methyl-3-(1-methylcyclopropyl)-6-[(5-oxo-4,5-dihydro-1H-1,2,4-triazol-1-yl)methyl]thieno[2,3-d]pyrimidine-2,4(1H,3H)-dione]
The IC50 of the first is 1.9-fold lower: 86 nM for the first, 160 nM for the second.

`Cc1c(CN2CCNC2=NC#N)sc2c1c(=O)n(C1CC3(CCC3)C1)c(=O)n2CCC(F)(F)F` [Example 175, [1-{[5-Methyl-2,4-dioxo-3-(spiro[3.3]hept-2-yl)-1-(3,3,3-trifluoropropyl)-1,2,3,4-tetrahydrothieno[2,3-d]pyrimidin-6-yl]methyl}imidazolidin-2-ylidene]cyanamide] and `Cc1c(CN2CCNC2=O)sc2c1c(=O)n(C1(C)CC1)c(=O)n2CC1CC1(F)F` (single isomer, unassigned) [Example 64, 1-[(2,2-Difluorocyclopropyl)methyl]-5-methyl-3-(1-methylcyclopropyl)-6-[(2-oxoimidazolidin-1-yl)methyl]thieno[2,3-d]pyrimidine-2,4(1H,3H)-dione] are within 1.5-fold of each other in IC50: 18 nM for the first, 13 nM for the second.

`Cc1c(Cn2cc[nH]c2=O)sc2c1c(=O)n(C1CC1)c(=O)n2CC1CCCO1` (racemic) [Example 46, 3-Cyclopropyl-5-methyl-6-[(2-oxo-2,3-dihydro-H-imidazol-1-yl)methyl]-1-(tetrahydrofuran-2-ylmethyl)thieno[2,3-d]pyrimidine-2,4(1H,3H)-dione] gave an IC50 of 39 nM.
